Assay results as given in US20060194837A1, “Tetrahydroisoquinoline compounds” (priority 2004, published 2006).
Where two headings read alike, the source gives them in different places.

Tests used:
[1] = biological target: T1, human H3 receptor (Homo sapiens, UniProt Q9Y5N1); experiment: Cyclic AMP accumulation (β-galactosidase reporter, Schild analysis); type: cell-based; conditions: histamine agonist, forskolin 5 μM, Schild regression of pEC50 values
T1 construct: expressed in transfected cells
Experimental: Sublines of SK-N-MC cells were created that expressed a reporter construct and the human H3 receptor. The reporter gene (β-galactosidase) is under the control of multiple cyclic AMP responsive elements. In 96-well plates, histamine was added directly to the cell media followed 5 min later by an addition of forskolin (5 μM final concentration). When appropriate, antagonists were added 10 min prior to agonist addition. After a 6-h incubation at 37° C., the media was aspirated and the cells washed with 200 μL of phosphate-buffered saline followed by a second aspiration. Cells were lysed with 25 μL 0.1× assay buffer (10 mM Na-phosphate, pH 8, 0.2 mM MgSO4, 0.01 mM MnCl2) and incubated at rt for 10 min. […] Color was developed using 25 μL of 1 mg/mL substrate solution (chlorophenolred β-D galactopyranoside; Roche Molecular Biochemicals, Indianapolis, In.).

[2] = biological target: T2, Rat SERT (Rattus norvegicus, UniProt P31652); experiment: Rat brain SERT binding ([3H]-citalopram displacement); conditions: rat brain membranes without cerebellum, 0.6 nM [3H]-citalopram, 60 min at 25° C.
T2 construct: A rat brain without cerebellum (Zivic Laboratories, Inc.—Pittsburgh, Pa.) was homogenized; tissue Zivic Laboratories, Inc; host or cells: rat brain without cerebellum, membranes
Experimental: The supernatant was removed and re-centrifuged at 15,000 rpm for 30 min. […] Membranes were incubated with 0.6 nM [^3H]-Citalopram plus/minus test compounds for 60 min at 25° C. and harvested by rapid filtration over GF/C glass fiber filters (pretreated with 0.3% polyethylenimine) followed by four washes with ice-cold buffer.

[3] = biological target: T1, human H3 receptor; experiment: H3 receptor binding (N-[3H]-α-methylhistamine displacement); conditions: membranes of SK-N-MC cells expressing cloned human H3 receptor, 0.8 nM N-[3H]-α-methylhistamine, 60 min at 25° C.
[4] = biological target: T3, human SERT (Homo sapiens, UniProt P31645); experiment: Human SERT binding (3H-citalopram displacement); conditions: HEK293 membranes expressing human SERT, rt 1 h
T3 construct: expressed in transfected cells; host or cells: HEK293 membranes
Experimental: Homogenized HEK293 (Human Embryonic Kidney) membranes expressing the human SERT were incubated with ^3H-citalopram (SERT) at rt for 1 h in 50 mM Tris, 120 mM NaCl, 5 mM KCl (pH 7.4). […] The membranes were washed and the radioactivity was counted as above.

[5] = SK-N-MC cells expressing human H3 receptor and CRE-β-galactosidase reporter, read-out: pA2 (converted)
[6] = pA2, SK-N-MC cells expressing human H3 receptor and CRE-β-galactosidase reporter

T3 sequence (P31645 whole entry): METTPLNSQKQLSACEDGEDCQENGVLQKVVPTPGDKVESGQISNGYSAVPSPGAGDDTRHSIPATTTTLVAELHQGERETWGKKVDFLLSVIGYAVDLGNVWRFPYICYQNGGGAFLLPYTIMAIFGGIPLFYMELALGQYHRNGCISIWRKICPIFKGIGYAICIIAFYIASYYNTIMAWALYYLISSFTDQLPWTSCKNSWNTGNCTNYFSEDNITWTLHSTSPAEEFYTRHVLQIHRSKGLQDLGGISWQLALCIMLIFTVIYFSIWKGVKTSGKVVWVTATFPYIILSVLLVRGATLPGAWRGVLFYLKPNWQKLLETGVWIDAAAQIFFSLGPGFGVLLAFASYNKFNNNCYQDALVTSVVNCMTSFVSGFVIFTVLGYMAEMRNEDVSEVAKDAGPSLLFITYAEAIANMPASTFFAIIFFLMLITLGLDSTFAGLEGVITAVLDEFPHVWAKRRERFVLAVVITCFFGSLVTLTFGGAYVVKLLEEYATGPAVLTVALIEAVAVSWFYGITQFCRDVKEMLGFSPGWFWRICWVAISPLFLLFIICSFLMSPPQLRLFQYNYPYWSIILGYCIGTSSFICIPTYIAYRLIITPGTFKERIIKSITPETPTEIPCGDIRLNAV
T2 sequence (P31652 whole entry): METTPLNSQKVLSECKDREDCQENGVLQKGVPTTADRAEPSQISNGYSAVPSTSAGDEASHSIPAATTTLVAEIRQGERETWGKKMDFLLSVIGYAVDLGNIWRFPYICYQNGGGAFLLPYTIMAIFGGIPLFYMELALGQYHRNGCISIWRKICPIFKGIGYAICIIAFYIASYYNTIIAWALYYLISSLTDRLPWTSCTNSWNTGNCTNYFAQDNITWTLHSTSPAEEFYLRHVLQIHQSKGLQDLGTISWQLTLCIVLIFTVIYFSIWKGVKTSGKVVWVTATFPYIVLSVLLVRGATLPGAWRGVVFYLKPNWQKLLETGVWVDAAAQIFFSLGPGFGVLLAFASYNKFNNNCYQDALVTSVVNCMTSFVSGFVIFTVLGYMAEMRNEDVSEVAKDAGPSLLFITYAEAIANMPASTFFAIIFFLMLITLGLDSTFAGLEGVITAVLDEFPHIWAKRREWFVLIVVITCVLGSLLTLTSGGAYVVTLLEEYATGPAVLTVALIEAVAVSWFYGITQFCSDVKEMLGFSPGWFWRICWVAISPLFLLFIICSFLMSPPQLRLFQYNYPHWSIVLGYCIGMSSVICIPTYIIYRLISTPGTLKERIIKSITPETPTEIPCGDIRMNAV
T1 sequence (Q9Y5N1 whole entry): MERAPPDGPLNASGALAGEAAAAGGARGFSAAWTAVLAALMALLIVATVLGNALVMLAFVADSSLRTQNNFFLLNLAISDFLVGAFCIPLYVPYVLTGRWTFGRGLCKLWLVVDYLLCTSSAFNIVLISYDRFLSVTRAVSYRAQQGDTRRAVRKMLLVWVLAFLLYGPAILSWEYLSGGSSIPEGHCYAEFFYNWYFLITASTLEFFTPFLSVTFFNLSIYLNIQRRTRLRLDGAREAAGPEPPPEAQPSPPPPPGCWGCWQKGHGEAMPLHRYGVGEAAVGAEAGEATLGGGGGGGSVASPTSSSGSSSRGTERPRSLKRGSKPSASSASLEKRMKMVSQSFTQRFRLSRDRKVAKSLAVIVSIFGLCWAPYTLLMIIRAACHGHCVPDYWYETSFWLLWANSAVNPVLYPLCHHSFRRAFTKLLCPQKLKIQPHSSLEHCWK

SMILES	Kb [1, 5] [nM]	Ki ([2]; read-out: Rat SERT Ki) [nM]	Ki [3] [nM]	Ki [4] [nM]	Kb [1, 6] [nM]	Ki ([2]; Rat SERT Ki (nM)) [nM]
CN1Cc2cc(OCCCN3CCOCC3)ccc2C(c2ccc(OC(F)F)cc2)C1 (stereo not drawn) [Example 214, 4-(4-Difluoromethoxy-phenyl)-2-methyl-7-(3-morpholin-4-yl-propoxy)-1,2,3,4-tetrahydro-isoquinoline]	6.31	3	17	12		
COc1ccc(C2CN(C)Cc3cc(OCCCN4CCC(O)CC4)ccc32)cc1 (stereo not drawn) [Example 21, 1-{3-[4-(4-Methoxy-phenyl)-2-methyl-1,2,3,4-tetrahydro-isoquinolin-7-yloxy]-propyl}-piperidin-4-ol]	12.6	2	9	4		
CCN(CC)CCCOc1ccc2c(c1)CN(C)CC2c1ccc(OC)cc1 (stereo not drawn) [Example 3, Diethyl-{3-[4-(4-methoxy-phenyl)-2-methyl-1,2,3,4-tetrahydro-isoquinolin-7-yloxy]-propyl}-amine]		3	0.7	4	0.398	
CCN1Cc2cc(OCCCN3CCC(F)CC3)ccc2C(c2ccc(OC)cc2)C1 (stereo not drawn) [Example 146, 2-Ethyl-7-[3-(4-fluoro-piperidin-1-yl)-propoxy]-4-(4-methoxy-phenyl)-1,2,3,4-tetrahydro-isoquinoline]	2	12	3	12		
COc1ccc(C2CN(C)Cc3cc(OCCCN4CCCC(O)C4)ccc32)cc1 (mixture of isomers) [Example 20, 1-{3-[4-(4-Methoxy-phenyl)-2-methyl-1,2,3,4-tetrahydro-isoquinolin-7-yloxy]-propyl}-piperidin-3-ol]	1	4	2	3		
CN1Cc2cc(CCCCN3CCCCC3)ccc2C(c2cccnc2)C1 (stereo not drawn) [Example 273, 2-Methyl-7-(4-piperidin-1-yl-butyl)-4-pyridin-3-yl-1,2,3,4-tetrahydro-isoquinoline]	2	47	5	158		
c1cncc(C2CNCc3cc(CCCCN4CCCCC4)ccc32)c1 (stereo not drawn) [Example 272, 7-(4-Piperidin-1-yl-butyl)-4-pyridin-3-yl-1,2,3,4-tetrahydro-isoquinoline]	3.16	540	3	3000		
COc1cccc(C2CN(C)Cc3cc(OCCCN4CCC(F)CC4)ccc32)c1 (racemic) [Example 44, 7-[3-(4-Fluoro-piperidin-1-yl)-propoxy]-4-(3-methoxyphenyl)-2-methyl-1,2,3,4-tetrahydro-isoquinoline]	0.794	4	2	7		
COc1ccc(C2CN(CCO)Cc3cc(OCCCN4CCCCC4)ccc32)cc1 (stereo not drawn) [Example 71, 2-[4-(4-Methoxy-phenyl)-7-(3-piperidin-1-yl-propoxy)-3,4-dihydro-1H-isoquinolin-2-yl]-ethanol]	0.251	16	1	31		
COc1ccc(C2CN(C)Cc3cc(OCCCN4[C@H](C)CC[C@H]4C)ccc32)cc1 (stereo partly drawn) [Example 11, 7-[3-((2R,5R)-trans-Dimethyl-pyrrolidin-1-yl)-propoxy]-4-(4-methoxy-phenyl)-2-methyl-1,2,3,4-tetrahydro-isoquinoline]	0.398	2	0.6	5		
COc1ccc(C2CN(CCF)Cc3cc(OCCCN4CCCCC4)ccc32)cc1 (stereo not drawn) [Example 72, 2-(2-Fluoro-ethyl)-4-(4-methoxy-phenyl)-7-(3-piperidin-1-yl-propoxy)-1,2,3,4-tetrahydro-isoquinoline]		15	1	29	0.794	
COc1ccc(C2CN(C)Cc3cc(OCCCN4CCC(C#N)CC4)ccc32)cc1 (single isomer, unassigned) [Example 37B, 1-{3-[4-(4-Methoxy-phenyl)-2-methyl-1,2,3,4-tetrahydro-isoquinolin-7-yloxy]-propyl}-piperidine-4-carbonitrile]	5.01	4	6	6		
C(#Cc1ccc2c(c1)CNCC2c1cccnc1)CCN1CCCCC1 (stereo not drawn) [Example 271, 7-(4-Piperidin-1-yl-but-1-ynyl)-4-pyridin-3-yl-1,2,3,4-tetrahydro-isoquinoline]	0.251	413	0.7	3000		
COc1cccc(C2CN(C)Cc3cc(OCCCN4CCC(F)CC4)ccc32)c1 (single isomer, unassigned) [Example 45A, 7-[3-(4-Fluoro-piperidin-1-yl)-propoxy]-4-(3-methoxyphenyl)-2-methyl-1,2,3,4-tetrahydro-isoquinoline]	1.26	9	2	7		
CN1Cc2cc(OCCCN3CCC(F)CC3)ccc2C(c2ccc(OC(F)F)cc2)C1 (stereo not drawn) [Example 50, 4-(4-Difluoromethoxy-phenyl)-7-[3-(4-fluoro-piperidin-1-yl)-propoxy]-2-methyl-1,2,3,4-tetrahydro-isoquinoline]		3	8	3	3.98	
COc1ccc(C2CN(C)Cc3cc(OCCCN4CCC(C#N)CC4)ccc32)cc1 (racemic) [Example 37, 1-{3-[4-(4-Methoxy-phenyl)-2-methyl-1,2,3,4-tetrahydro-isoquinolin-7-yloxy]-propyl}-piperidine-4-carbonitrile]	6.31	8	9	6		
CN1Cc2cc(C#CCCN3CCCCC3)ccc2C(c2ccc(F)cc2)C1 (stereo not drawn) [Example 279, 4-(4-Fluoro-phenyl)-2-methyl-7-(4-piperidin-1-yl-but-1-ynyl)-1,2,3,4-tetrahydro-isoquinoline]	3.16	90	6	98		
COc1ccc(C2CN(C)Cc3cc(OCCCN4CCOCC4)ccc32)cc1 (stereo not drawn) [Example 9, 4-(4-Methoxy-phenyl)-2-methyl-7-(3-morpholin-4-yl-propoxy)-1,2,3,4-tetrahydro-isoquinoline]	2.51	5	3	6		
COc1ccc(C2CN(C)Cc3cc(OCCCN4CC[C@@H](N(C)C)C4)ccc32)cc1 (stereo in doubt) [Example 10, (1-{3-[4-(4-Methoxy-phenyl)-2-methyl-1,2,3,4-tetrahydro-isoquinolin-7-yloxy]-propyl}-pyrrolidin-3-yl)-dimethyl-amine]	3.98	4	1	5		
CN1Cc2cc(OCCCN3CCCCC3)ccc2C(c2ccc(C(F)(F)F)cc2)C1 (stereo not drawn) [Example 60]	2.51	14	2	7		
CN1Cc2cc(OCCCN3CCCCC3)ccc2C(c2ccc(Cl)c(Cl)c2)C1 (stereo not drawn) [Example 76, 4-(3,4-Dichloro-phenyl)-2-methyl-7-(3-piperidin-1-yl-propoxy)-1,2,3,4-tetrahydro-isoquinoline]			5	9	3.98	11
COc1ccc(C2CNCc3cc(OCCCN4CCC(F)CC4)ccc32)cc1 (stereo not drawn) [Example 147, 7-[3-(4-Fluoro-piperidin-1-yl)-propoxy]-4-(4-methoxy-phenyl)-1,2,3,4-tetrahydro-isoquinoline]	10	18	9			
